Data published in ChEMBL document CHEMBL1201862, “PubChem BioAssay data set” (2004).
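Each compound was tested at five concentrations against cells in 96-well plates for 48 hours. Abbreviation: GI50, concentration required for 50% inhibition of growth.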 The source made the active and inactive calls. Rule as the data show it: active = GI50 up to about 1.1 µM and inactive = higher.

Legend:
Test in all cases: inhibition of tumour cell growth, NCI panel, 48 h
[1] = test system: A549
[2] = test system: Hs-578T
[3] = test system: RPMI-8226
[4] = test system: NCI-H23
[5] = test system: SK-MEL-5
[6] = test system: UACC-257
[7] = test system: HL-60
[8] = test system: MCF7
[9] = test system: HT-29
[10] = test system: MDA-MB-435
[11] = test system: RXF 393
[12] = test system: SN12C
[13] = test system: MDA-N
[14] = test system: SK-OV-3
[15] = test system: T47D
[16] = test system: SF-295
[17] = test system: SR
[18] = test system: CAKI-1
[19] = test system: LOX IMVI
[20] = test system: OVCAR-8
[21] = test system: Malme-3M
[22] = test system: 786-0
[23] = test system: MOLT-4
[24] = test system: HOP-92
[25] = test system: HCT-15
[26] = test system: U-251
[27] = test system: IGROV-1
[28] = test system: UO-31
[29] = test system: NCI-H460
[30] = test system: SNB-75
[31] = test system: SK-MEL-2
[32] = test system: UACC-62
[33] = test system: SF-539
[34] = test system: HCC 2998
[35] = test system: M14
[36] = test system: HOP-62
[37] = test system: SF-268
[38] = test system: SW-620
[39] = test system: TK-10
[40] = test system: PC-3
[41] = test system: NCI/ADR-RES
[42] = test system: A498
[43] = test system: ACHN
[44] = test system: SK-MEL-28
[45] = test system: OVCAR-4
[46] = test system: OVCAR-5
[47] = test system: OVCAR-3
[48] = test system: NCI-H522
[49] = test system: EKVX
[50] = test system: COLO 205
[51] = test system: BT-549
[52] = test system: HCT-116
[53] = test system: DU-145
[54] = test system: KM12
[55] = test system: NCI-H226
[56] = test system: MDA-MB-231
[57] = test system: SNB-19
[58] = test system: K562
[59] = test system: CCRF-CEM

In the case of `O=c1ccc2ccc(S)cc2o1`, the GI50 [1] is reported as > 100 µM (inactive), the GI50 [2] is reported as > 100 µM (inactive) and the GI50 [3] is reported as 99.8 µM (inactive). For the same compound, the GI50 [4] was > 100 µM (inactive), the GI50 [5] was > 100 µM (inactive) and the GI50 [6] was > 100 µM (inactive). For the same compound, the GI50 [7] was > 100 µM (inactive), the GI50 [8] was > 100 µM (inactive) and the GI50 [9] was > 100 µM (inactive). The GI50 [10] was > 100 µM (inactive), the GI50 [11] was > 100 µM (inactive) and the GI50 [12] was > 100 µM (inactive). The GI50 [13] was > 100 µM (inactive), the GI50 [14] was > 100 µM (inactive) and the GI50 [15] was > 100 µM (inactive). For the same compound, the GI50 [16] was > 100 µM (inactive), the GI50 [17] was > 100 µM (inactive) and the GI50 [18] was > 100 µM (inactive). The GI50 [19] was > 100 µM (inactive), the GI50 [20] was > 100 µM (inactive) and the GI50 [21] was > 100 µM (inactive). The GI50 [22] was > 100 µM (inactive), the GI50 [23] was 42 µM (inactive) and the GI50 [24] was > 100 µM (inactive). The GI50 [25] was > 100 µM, the GI50 [26] was > 100 µM (inactive) and the GI50 [27] was > 100 µM (inactive). The GI50 [28] was > 100 µM (inactive), the GI50 [29] was > 100 µM (inactive) and the GI50 [30] was > 100 µM (inactive). The GI50 [31] was > 100 µM (inactive), the GI50 [32] was > 100 µM (inactive) and the GI50 [33] was > 100 µM (inactive). For the same compound, the GI50 [34] was > 100 µM (inactive), the GI50 [35] was > 100 µM (inactive) and the GI50 [36] was > 100 µM (inactive). The GI50 [37] was > 100 µM (inactive), the GI50 [38] was > 100 µM (inactive) and the GI50 [39] was 92.5 µM (inactive). The GI50 [40] was > 100 µM (inactive), the GI50 [41] was > 100 µM (inactive) and the GI50 [42] was > 100 µM (inactive). For the same compound, the GI50 [43] was > 100 µM (inactive), the GI50 [44] was > 100 µM (inactive) and the GI50 [45] was > 100 µM (inactive). For the same compound, the GI50 [46] was > 100 µM (inactive), the GI50 [47] was > 100 µM (inactive) and the GI50 [48] was 87.3 µM (inactive). For the same compound, the GI50 [49] was > 100 µM (inactive), the GI50 [50] was > 100 µM (inactive) and the GI50 [51] was > 100 µM (inactive). The GI50 [52] was > 100 µM (inactive), the GI50 [53] was > 100 µM (inactive) and the GI50 [54] was > 100 µM (inactive). The GI50 [55] was > 100 µM (inactive), the GI50 [56] was > 100 µM (inactive) and the GI50 [57] was > 100 µM (inactive).

`O=C1c2cc([N+](=O)[O-])ccc2-c2cccc(F)c21` was tested, and the GI50 [58] was 43 µM (inactive), the GI50 [1] was > 100 µM (inactive) and the GI50 [2] was 52.1 µM (inactive). The GI50 [3] was 64.1 µM (inactive), the GI50 [4] was > 100 µM (inactive) and the GI50 [5] was 70.6 µM (inactive). The GI50 [6] was 65.3 µM (inactive), the GI50 [7] was 38.5 µM (inactive) and the GI50 [8] was 31.3 µM (inactive). The GI50 [9] was > 100 µM (inactive), the GI50 [10] was 76.7 µM (inactive) and the GI50 [11] was 42.9 µM (inactive). For the same compound, the GI50 [12] was > 100 µM (inactive), the GI50 [13] was 72.3 µM (inactive) and the GI50 [14] was > 100 µM (inactive). The GI50 [15] was 23.2 µM (inactive), the GI50 [16] was > 100 µM (inactive) and the GI50 [17] was 30.3 µM (inactive). For the same compound, the GI50 [18] was > 100 µM (inactive), the GI50 [19] was 60 µM (inactive) and the GI50 [20] was 43.1 µM (inactive). For the same compound, the GI50 [22] was > 100 µM (inactive), the GI50 [23] was 42.3 µM (inactive) and the GI50 [24] was > 100 µM (inactive). For the same compound, the GI50 [25] was 37.1 µM, the GI50 [26] was 90.4 µM (inactive) and the GI50 [27] was 40.7 µM (inactive). The GI50 [28] was 85.3 µM (inactive), the GI50 [29] was 89.3 µM (inactive) and the GI50 [30] was > 100 µM (inactive). For the same compound, the GI50 [31] was 21.2 µM (inactive), the GI50 [32] was 56.1 µM (inactive) and the GI50 [33] was 40.2 µM (inactive). The GI50 [34] was 80.2 µM (inactive), the GI50 [35] was > 100 µM (inactive) and the GI50 [36] was > 100 µM (inactive). For the same compound, the GI50 [37] was 44.3 µM (inactive), the GI50 [38] was 48.3 µM (inactive) and the GI50 [39] was > 100 µM (inactive). For the same compound, the GI50 [40] was 73.8 µM (inactive), the GI50 [59] was 23.7 µM (inactive) and the GI50 [41] was > 100 µM (inactive). The GI50 [42] was 65.6 µM (inactive), the GI50 [43] was > 100 µM (inactive) and the GI50 [44] was > 100 µM (inactive). The GI50 [45] was > 100 µM (inactive), the GI50 [46] was > 100 µM (inactive) and the GI50 [47] was > 100 µM (inactive). For the same compound, the GI50 [48] was 44.5 µM (inactive), the GI50 [49] was 18.9 µM (inactive) and the GI50 [50] was > 100 µM (inactive). The GI50 [51] was > 100 µM (inactive), the GI50 [52] was 67.6 µM (inactive) and the GI50 [53] was > 100 µM (inactive). For the same compound, the GI50 [54] was 79.4 µM (inactive), the GI50 [55] was 96.4 µM (inactive) and the GI50 [56] was > 100 µM (inactive). The GI50 [57] was > 100 µM (inactive).

In the case of `COc1cc(CNC(=O)CCCCCCCCCCSSCCCCCCCCCCC(=O)NCc2ccc(O)c(OC)c2)ccc1O`, the GI50 [58] is reported as > 10 µM (inactive), the GI50 [1] is reported as > 10 µM (inactive) and the GI50 [2] is reported as > 10 µM (inactive). The GI50 [3] was > 10 µM (inactive), the GI50 [4] was > 10 µM (inactive) and the GI50 [5] was > 10 µM (inactive). The GI50 [6] was > 10 µM (inactive), the GI50 [7] was > 10 µM (inactive) and the GI50 [8] was > 10 µM (inactive). For the same compound, the GI50 [9] was > 10 µM (inactive), the GI50 [10] was > 10 µM (inactive) and the GI50 [11] was 0.184 µM (active). The GI50 [12] was > 10 µM (inactive), the GI50 [13] was > 10 µM (inactive) and the GI50 [14] was > 10 µM (inactive). For the same compound, the GI50 [15] was > 10 µM (inactive), the GI50 [16] was > 10 µM (inactive) and the GI50 [17] was > 10 µM (inactive). The GI50 [18] was > 10 µM (inactive), the GI50 [19] was > 10 µM (inactive) and the GI50 [20] was > 10 µM (inactive). The GI50 [21] was > 10 µM (inactive), the GI50 [22] was > 10 µM (inactive) and the GI50 [23] was > 10 µM (inactive). The GI50 [24] was > 10 µM (inactive), the GI50 [25] was > 10 µM and the GI50 [26] was > 10 µM (inactive). The GI50 [27] was > 10 µM (inactive), the GI50 [29] was > 10 µM (inactive) and the GI50 [30] was > 10 µM (inactive). For the same compound, the GI50 [31] was > 10 µM (inactive), the GI50 [32] was > 10 µM (inactive) and the GI50 [33] was > 10 µM (inactive). For the same compound, the GI50 [34] was > 10 µM (inactive), the GI50 [35] was > 10 µM (inactive) and the GI50 [36] was > 10 µM (inactive). For the same compound, the GI50 [37] was > 10 µM (inactive), the GI50 [38] was > 10 µM (inactive) and the GI50 [39] was > 10 µM (inactive). The GI50 [40] was > 10 µM (inactive), the GI50 [59] was > 10 µM (inactive) and the GI50 [41] was > 10 µM (inactive). For the same compound, the GI50 [42] was > 10 µM (inactive), the GI50 [43] was > 10 µM (inactive) and the GI50 [44] was > 10 µM (inactive). The GI50 [45] was > 10 µM (inactive), the GI50 [46] was > 10 µM (inactive) and the GI50 [47] was > 10 µM (inactive). The GI50 [48] was 0.918 µM (active), the GI50 [49] was > 10 µM (inactive) and the GI50 [50] was > 10 µM (inactive). The GI50 [51] was > 10 µM (inactive), the GI50 [52] was > 10 µM (inactive) and the GI50 [53] was > 10 µM (inactive). The GI50 [54] was > 10 µM (inactive), the GI50 [55] was > 10 µM (inactive) and the GI50 [56] was > 10 µM (inactive). For the same compound, the GI50 [57] was > 10 µM (inactive).
